The Kd is the concentration at which binding is half-saturated.

This test addresses T1, GID1 (Oryza sativa subsp. japonica, UniProt Q6L545).
T1 construct: GST (tag of vector pGEX-4T) (N); made in house
The experiment in a line: Saturation/Scatchard and association/dissociation analysis of GA binding to recombinant GID1. Conditions: Scatchard plot analysis. Further details: species or system rice. How it is done: Panel a) depicts the saturability for the GA binding of GID1. […] Bar represents the standard deviation (n=3). Panel b) depicts the results of a Scatchard plot for the data of binding shown in a. The Kd value was calculated (correlation coefficient R^2=0.96) from t three independent experimental results. Panel c) depicts the ^3H-GA association/dissociation rate to GID1. […] Bar represents the standard deviation (n=3). […] Upper panel, none of three recombinant proteins of mutant GID1s (GID1-1, 1-2, and 1-3) corresponding to the three gid1 alleles interacted with GA4. […] Bar represents the standard deviation (n=3). Bottom panel, Coomassie brilliant blue stain of the recombinant proteins used in this experiment. Dot represents GID or tag proteins in the SDS-PAGE profile. In this experiment, almost equal amounts of proteins were used for each (80 pmol). Panel e) depicts the gross morphologies of a GID1-overexpressing plant (Actin1 promoter-GID1, right) and wild type plant (control, left) three months after seeding. Bar=50 cm. f) dose-dependent GA response in the elongation of the second leaf sheath of GID1overexpressing plant (closed triangle) and wild type (closed circle). Bar represents the standard deviation (n=5).
In the gibberellin-binding assay, [1,2,16,17-^3H4]16,17-dihydro-GA4 was used as a labeled GA4. In vitro GA-binding assays were carried out using previous methods with some modifications (Nakajima, M. et al., Biochem. Biophys. Res. Comm. 241, 782-786 (1997)). […] The eluate of the binding buffer (0.6 ml) was discarded, the subsequent eluate (0.2 ml) was collected, and the radioactivity was measured. The specific binding activity, reflecting the number of displaceable GA binding sites, was calculated by subtracting the amount of nonspecific binding from the amount of total binding. […]
Next, the kinetics of the binding of GID1 to GA was analyzed. To calculate the Kd value of GID1 to GA, the saturability of GA binding was measured using various concentrations of GA4 derivative (FIG. 4a). […]

T1 sequence (Q6L545 whole entry): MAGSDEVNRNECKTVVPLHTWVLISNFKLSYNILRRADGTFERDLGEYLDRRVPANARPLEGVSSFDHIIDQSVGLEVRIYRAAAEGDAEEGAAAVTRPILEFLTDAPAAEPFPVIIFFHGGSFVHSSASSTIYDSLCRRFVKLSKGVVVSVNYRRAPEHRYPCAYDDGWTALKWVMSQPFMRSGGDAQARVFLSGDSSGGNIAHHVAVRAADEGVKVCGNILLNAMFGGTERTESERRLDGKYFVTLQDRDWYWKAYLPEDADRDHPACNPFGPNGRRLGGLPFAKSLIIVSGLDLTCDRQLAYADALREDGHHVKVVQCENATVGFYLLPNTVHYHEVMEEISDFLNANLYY

For the compound `CC1C[C@]23C[C@H]1CCC2[C@]12CC[C@H](O)[C@](C)(C(=O)O1)[C@H]2[C@@H]3C(=O)O` (stereo partly shown) [H2-GA4, 16,17-dihydro-GA4], the Kd came to 1400 nM.

The values are drawn from patent publication US7915050B2, “Regulatory genes for plant differentiation and growth, and use of the same” (National University Corporation Nagoya University, priority 2005, dated 2011).
